Assay results published in patent US6177438A, “Morphinan derivatives and pharmaceutical use thereof” (priority 1993, dated 2001).
Counter-ions that a name gives are not always drawn.

Legend:
[1] = test system: extracted mouse vas deferens preparation; experiment: Opioid activity test using an extracted mouse vas deferens preparation (suppression of electrically induced contractions); parameters: species or system male ddy mouse; conditions: electrical stimulus 0.1 Hz, 37° C.
Outline: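 Male ddY mouse vas deferens in Krebs-Henseleit at 37° C, 5% CO2/95% O2, field-stimulated at 0.1 Hz, 5.0 ms; isometric contractions recorded. After adding naloxone, NTI or norBNI, test compound was added cumulatively after ~20 min; Ke derived from the difference in agonist efficacies.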

δ receptor = target: T1, δ receptor (Mus musculus, UniProt P32300); parameters: species or system male ddy mouse; conditions: mouse vas deferens, δ, NTI added
T1 construct: The vas deferens extracted from the animal was suspended in a Magnus tube; from tissue; host or cells: mouse (male ddy) vas deferens

κ receptor = target: T2, κ receptor (Mus musculus, UniProt P33534); experiment: Opioid activity test using an extracted mouse vas deferens preparation, Ke with norBNI; parameters: species or system male ddy mouse; conditions: for receptor selectivity of agonist (κ): in words; for Ke, norBNI: κ, norBNI added
T2 construct: from tissue; host or cells: mouse (male ddy) vas deferens

[2] = test system: acetic acid-induced writhing in ddy mice; experiment: animal or person; format: in vivo, 5 week old ddy mice; conditions: Mus musculus, sc, s.c. 15 minutes before acetic acid, read-out: ED50
Experimental: 5 week old ddy mice were used in this test. After intraperitoneal administration of 0.1 ml of 0.6% aqueous acetic acid per 10 g of body weight, the number of writhing reactions that occurred in 10 minutes starting 10 minutes after administration was evaluated for the indicator. The test drug was administered subcutaneously into the backs of the animals 15 minutes before administration of acetic acid.

[3] = Diuretic action (urine output for 5 hours after physiological saline loading in rats); format: in vivo, male Wistar rats; conditions: Rattus norvegicus, sc, 5 hours after saline 20 ml/kg p.o.; for ED (200% urine output): dose giving urine output of 200 (non-dosed group = 100); for ED (500% urine output): dose giving urine output of 500 (non-dosed group = 100)
Outline: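 Doses reported as ED200/ED500, i.e. those raising 5 h urine output to 200 or 500 versus undosed rats set at 100. Subcutaneous dosing preceded an oral 20 ml/kg saline load by 30 min; male Wistar rats, 7-8 weeks, deprived of water 1 h beforehand.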

[4] = test system: cultured nerve cells (cerebral cortex); conditions: 10 mM glutamic acid, 24 hours
[5] = test system: cultured nerve cells (cerebral cortex); experiment: cells; conditions: Rattus norvegicus, Cerebral cortex neuron, 24 h, read-out: ED50 (protection against glutamic acid toxicity)

T2 sequence (P33534 whole entry): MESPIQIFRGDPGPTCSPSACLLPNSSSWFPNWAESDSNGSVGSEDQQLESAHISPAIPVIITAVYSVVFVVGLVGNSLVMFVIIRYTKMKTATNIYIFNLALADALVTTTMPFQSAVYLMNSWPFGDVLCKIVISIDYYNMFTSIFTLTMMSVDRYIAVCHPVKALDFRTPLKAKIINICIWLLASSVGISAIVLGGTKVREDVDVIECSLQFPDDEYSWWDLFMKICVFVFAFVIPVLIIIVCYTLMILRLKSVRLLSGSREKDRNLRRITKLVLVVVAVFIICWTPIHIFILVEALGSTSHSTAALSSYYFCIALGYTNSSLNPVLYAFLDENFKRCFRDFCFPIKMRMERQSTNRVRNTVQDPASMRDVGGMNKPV
T1 sequence (P32300 whole entry): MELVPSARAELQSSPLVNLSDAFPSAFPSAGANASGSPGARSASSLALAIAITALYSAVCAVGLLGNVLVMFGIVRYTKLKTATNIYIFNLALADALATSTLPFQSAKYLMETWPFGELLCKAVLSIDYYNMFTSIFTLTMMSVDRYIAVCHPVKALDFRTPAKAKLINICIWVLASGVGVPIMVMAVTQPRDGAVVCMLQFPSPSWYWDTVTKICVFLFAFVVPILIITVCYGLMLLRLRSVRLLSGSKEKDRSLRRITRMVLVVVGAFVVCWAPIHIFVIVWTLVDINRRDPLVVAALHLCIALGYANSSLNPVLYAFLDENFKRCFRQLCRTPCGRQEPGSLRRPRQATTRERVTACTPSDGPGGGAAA

Compound | IC50 [1] | Ke, NTI (δ receptor) | receptor selectivity of agonist (κ) (κ receptor) | Ke, norBNI (κ receptor) | ED50 [2] | ED (200% urine output) [3] | ED (500% urine output) [3] | Protective action against cytotoxicity caused by glutamic acid (in words) [4] | EC50 [5]
CN(C(=O)Cc1ccc(Cl)c(Cl)c1)[C@@H]1CC[C@@]2(O)[C@H]3Cc4ccc(O)c5c4[C@@]2(CCN3CC2CC2)[C@H]1O5 [Compound 53, 17-cyclopropylmethyl-4,5α-epoxy-3,14β-dihydroxy-6β-(N-methyl-3,4-dichlorophenylacetoamido)morphinan.cndot.hydrochloride] | 10.3 nM | 1676 nM | selective agonists for κ receptors | 0.21 nM | 0.46 mg/kg | 0.135 mg/kg | 0.658 mg/kg | clearly demonstrated action that protects nerve cells from cytotoxicity caused by glutamic acid | 2510 nM
CN(C(=O)COc1ccccc1)[C@@H]1CC[C@@]2(O)[C@H]3Cc4ccc(O)c5c4[C@@]2(CCN3CC2CC2)[C@H]1O5 [Compound 58, 17-cyclopropylmethyl-3,14β-dihydroxy-4,5α-epoxy-6β-(N-methylphenoxyacetamido)morphinan.cndot.tartrate] |  |  |  |  | 0.19 mg/kg |  |  | clearly demonstrated action that protects nerve cells from cytotoxicity caused by glutamic acid | 16700 nM
CN(C(=O)Cc1ccccc1)[C@H]1CC[C@@]2(O)[C@H]3Cc4ccc(O)c5c4[C@@]2(CCN3CC2CC2)[C@H]1O5 [Compound 23, 17-cyclopropylmethyl-3,14β-dihydroxy-4,5α-epoxy-6α-(N-methylphenylacetamido)morphinan.cndot.hydrochloride] |  |  |  |  | 0.67 mg/kg |  |  | clearly demonstrated action that protects nerve cells from cytotoxicity caused by glutamic acid | 1610 nM
CN(C(=O)C1CCCCC1)[C@H]1CC[C@@]2(O)[C@H]3Cc4ccc(O)c5c4[C@@]2(CCN3CC2CC2)[C@H]1O5 [Compound 33, 17-cyclopropylmethyl-3,14β-dihydroxy-4,5α-epoxy-6α-(N-methylcyclohexylcarboxyamido)morphinan.cndot.hydrochloride] |  |  |  |  | 0.08 mg/kg |  |  | clearly demonstrated action that protects nerve cells from cytotoxicity caused by glutamic acid | 3530 nM
CN(C(=O)OCc1ccccc1)[C@@H]1CC[C@@]2(O)[C@H]3Cc4ccc(O)c5c4[C@@]2(CCN3CC2CC2)[C@H]1O5 [Compound 56, 17-cyclopropylmethyl-3,14β-dihydroxy-4,5α-epoxy-6β-(N-methylbenzyloxycarbamido)morphinan.cndot.hydrochloride] |  |  |  |  | 0.00802 mg/kg | 0.0028 mg/kg | 0.0518 mg/kg | clearly demonstrated action that protects nerve cells from cytotoxicity caused by glutamic acid | 5230 nM
CN(C(=O)CCCc1ccccc1)[C@H]1CC[C@@]2(O)[C@H]3Cc4ccc(O)c5c4[C@@]2(CCN3CC2CC2)[C@H]1O5 [Compound 35, 17-cyclopropylmethyl-3,14β-dihydroxy-4,5α-epoxy-6α-(N-methyl-4-phenylbutyramido)morphinan.cndot.hydrochloride] |  |  |  |  | 0.026 mg/kg | 0.0245 mg/kg | 5.19 mg/kg | clearly demonstrated action that protects nerve cells from cytotoxicity caused by glutamic acid | 640 nM
CN(CCc1ccc(Cl)c(Cl)c1)[C@H]1CC[C@@]2(O)[C@H]3Cc4ccc(O)c5c4[C@@]2(CCN3CC2CC2)[C@H]1O5 [Compound 135, 17-Cyclopropylmethyl-3,14β-dihydroxy-4,5α-epoxy-6α-[N-methyl-N-2-(3,4-dichlorophenyl)ethylamino]morphinan.cndot.1.8 hydrochloride] |  |  |  |  |  |  |  | clearly demonstrated action that protects nerve cells from cytotoxicity caused by glutamic acid | 290 nM
O=C(Cc1ccc(Cl)c(Cl)c1)N[C@H]1CC[C@@]2(O)[C@H]3Cc4ccc(O)c5c4[C@@]2(CCN3CC2CC2)[C@H]1O5 [Compound 52, 17-cyclopropylmethyl-4,5α-epoxy-3,14β-dihydroxy-6α-(3,4-dichlorophenylacetoamido)morphinan.cndot.hydrochloride] |  |  |  |  |  |  |  | clearly demonstrated action that protects nerve cells from cytotoxicity caused by glutamic acid | 1710 nM
CN(C(=O)CCc1ccccc1)[C@@H]1CC[C@@]2(O)[C@H]3Cc4ccc(O)c5c4[C@@]2(CCN3CC2CC2)[C@H]1O5 [Compound 57, 17-cyclopropylmethyl-3,14β-dihydroxy-4,5α-epoxy-6β-(N-methyl-3-phenylpropionamido)morphinan.cndot.hydrochloride] | 0.0254 nM | 747 nM | selective agonists for κ receptors | 0.0124 nM | 0.04 mg/kg | 0.0424 mg/kg | 1.26 mg/kg | clearly demonstrated action that protects nerve cells from cytotoxicity caused by glutamic acid | 15300 nM
CN(C(=O)Cc1cccc(C(F)(F)F)c1)[C@H]1CC[C@@]2(O)[C@H]3Cc4ccc(O)c5c4[C@@]2(CCN3CC2CC2)[C@H]1O5 [Compound 108, 17-cyclopropylmethyl-3,14β-dihydroxy-4,5α-epoxy-6α-(N-methyl-3-trifluoromethylphenylacetamido)morphinan.cndot.hydrochloride] |  |  |  |  | 0.0064 mg/kg | 0.021 mg/kg | 5.11 mg/kg | clearly demonstrated action that protects nerve cells from cytotoxicity caused by glutamic acid | 250 nM
CN(C(=O)Cc1cccc(C(F)(F)F)c1)[C@@H]1CC[C@@]2(O)[C@H]3Cc4ccc(O)c5c4[C@@]2(CCN3CC2CC2)[C@H]1O5 [Compound 116, 17-cyclopropylmethyl-3,14β-dihydroxy-4,5α-epoxy-6β-(N-methyl-3-trifluoromethylphenylacetamido)morphinan.cndot.hydrochloride] |  |  |  |  |  |  |  | clearly demonstrated action that protects nerve cells from cytotoxicity caused by glutamic acid | 2370 nM
CN(Cc1ccccc1)[C@@H]1CC[C@@]2(O)[C@H]3Cc4ccc(O)c5c4[C@@]2(CCN3CC2CC2)[C@H]1O5 [Compound 8, 6β-(N-Benzyl)methylamino-17-cyclopropylmethyl-4,5α-epoxy-3,14β-dihydroxymorphinan] |  |  |  |  |  |  |  | clearly demonstrated action that protects nerve cells from cytotoxicity caused by glutamic acid | 5750 nM
CN(C(=O)Cc1ccc2ccccc2c1)[C@@H]1CC[C@@]2(O)[C@H]3Cc4ccc(O)c5c4[C@@]2(CCN3CC2CC2)[C@H]1O5 [Compound 112, 17-cyclopropylmethyl-3,14β-dihydroxy-4,5α-epoxy-6β-(N-methyl-2-naphthylacetamido)morphinan.cndot.hydrochloride] |  |  |  |  |  |  |  | clearly demonstrated action that protects nerve cells from cytotoxicity caused by glutamic acid | 4240 nM
C[C@H](C(=O)N(C)[C@H]1CC[C@@]2(O)[C@H]3Cc4ccc(O)c5c4[C@@]2(CCN3CC2CC2)[C@H]1O5)c1ccccc1 [Compound 32, 17-cyclopropylmethyl-4,5α-epoxy-3,14β-dihydroxy-6α-[(S)-N-methyl-2-phenylpropionamido]morphinan.cndot.tartrate] |  |  |  |  | 0.29 mg/kg |  |  | clearly demonstrated action that protects nerve cells from cytotoxicity caused by glutamic acid | 2140 nM
CN(C(=O)c1ccccc1)[C@H]1CC[C@@]2(O)[C@H]3Cc4ccc(O)c5c4[C@@]2(CCN3CC2CC2)[C@H]1O5 [Compound 34, 17-cyclopropylmethyl-3,14β-dihydroxy-4,5α-epoxy-6α-(N-methylbenzamido)morphinan.cndot.hydrochloride] |  |  |  |  | 0.21 mg/kg |  |  | clearly demonstrated action that protects nerve cells from cytotoxicity caused by glutamic acid | 180 nM
